We go through 3 molecules from ChEMBL document CHEMBL3817743, “Potent and Selective Human Neuronal Nitric Oxide Synthase Inhibition by Optimization of the 2-Aminopyridine-Based Scaffold with a Pyridine Linker” (J Med Chem, 2016).

In one data set the target is Nitric oxide synthase 1 (Rattus norvegicus, UniProt P29476). Briefly: Inhibition of rat recombinant nNOS expressed in Escherichia coli using L-arginine as substrate assessed as reduction in NO production measured for 6 mins in presence of tetrahydrobiopterin by hemoglobin capture assay.
Chain of Nitric oxide synthase 1 (P29476 whole entry): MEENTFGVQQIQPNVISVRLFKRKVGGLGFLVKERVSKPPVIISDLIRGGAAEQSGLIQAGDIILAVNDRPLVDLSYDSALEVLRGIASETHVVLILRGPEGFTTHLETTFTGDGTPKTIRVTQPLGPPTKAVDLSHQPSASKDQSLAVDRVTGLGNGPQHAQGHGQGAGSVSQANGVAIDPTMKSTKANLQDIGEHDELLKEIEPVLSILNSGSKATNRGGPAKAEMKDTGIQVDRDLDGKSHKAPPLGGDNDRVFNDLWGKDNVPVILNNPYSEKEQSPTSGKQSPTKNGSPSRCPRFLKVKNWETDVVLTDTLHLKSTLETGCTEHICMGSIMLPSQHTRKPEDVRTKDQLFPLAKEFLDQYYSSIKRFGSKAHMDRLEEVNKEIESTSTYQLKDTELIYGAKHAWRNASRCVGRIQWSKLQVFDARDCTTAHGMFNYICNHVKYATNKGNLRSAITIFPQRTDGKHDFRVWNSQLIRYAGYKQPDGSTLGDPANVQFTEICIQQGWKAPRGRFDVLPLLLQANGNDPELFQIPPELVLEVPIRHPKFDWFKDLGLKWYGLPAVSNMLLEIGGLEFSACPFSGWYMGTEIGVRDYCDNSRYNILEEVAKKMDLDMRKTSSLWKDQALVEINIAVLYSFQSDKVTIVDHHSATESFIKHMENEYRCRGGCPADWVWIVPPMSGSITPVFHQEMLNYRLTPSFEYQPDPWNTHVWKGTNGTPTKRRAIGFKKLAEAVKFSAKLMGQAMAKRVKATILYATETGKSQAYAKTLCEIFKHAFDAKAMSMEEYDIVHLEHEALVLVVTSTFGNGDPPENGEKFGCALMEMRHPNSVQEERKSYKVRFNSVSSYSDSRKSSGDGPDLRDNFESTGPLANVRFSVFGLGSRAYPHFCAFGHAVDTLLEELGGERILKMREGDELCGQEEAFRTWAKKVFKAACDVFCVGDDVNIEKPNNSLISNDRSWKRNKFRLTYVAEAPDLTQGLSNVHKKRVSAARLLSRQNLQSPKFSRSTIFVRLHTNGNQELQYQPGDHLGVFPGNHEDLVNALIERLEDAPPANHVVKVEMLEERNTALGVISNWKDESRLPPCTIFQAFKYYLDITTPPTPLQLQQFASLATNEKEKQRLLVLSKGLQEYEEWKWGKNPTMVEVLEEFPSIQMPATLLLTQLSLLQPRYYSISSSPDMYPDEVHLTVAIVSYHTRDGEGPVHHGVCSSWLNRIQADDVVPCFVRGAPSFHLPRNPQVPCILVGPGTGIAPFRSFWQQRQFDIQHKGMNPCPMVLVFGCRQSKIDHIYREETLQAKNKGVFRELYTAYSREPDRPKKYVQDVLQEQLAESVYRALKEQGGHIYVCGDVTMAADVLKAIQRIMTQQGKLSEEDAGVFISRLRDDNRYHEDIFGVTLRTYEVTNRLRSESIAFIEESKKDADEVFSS
In data set [1] the target is T1, Nitric oxide synthase, inducible (Mus musculus, UniProt P29477).
T1 sequence (P29477 whole entry): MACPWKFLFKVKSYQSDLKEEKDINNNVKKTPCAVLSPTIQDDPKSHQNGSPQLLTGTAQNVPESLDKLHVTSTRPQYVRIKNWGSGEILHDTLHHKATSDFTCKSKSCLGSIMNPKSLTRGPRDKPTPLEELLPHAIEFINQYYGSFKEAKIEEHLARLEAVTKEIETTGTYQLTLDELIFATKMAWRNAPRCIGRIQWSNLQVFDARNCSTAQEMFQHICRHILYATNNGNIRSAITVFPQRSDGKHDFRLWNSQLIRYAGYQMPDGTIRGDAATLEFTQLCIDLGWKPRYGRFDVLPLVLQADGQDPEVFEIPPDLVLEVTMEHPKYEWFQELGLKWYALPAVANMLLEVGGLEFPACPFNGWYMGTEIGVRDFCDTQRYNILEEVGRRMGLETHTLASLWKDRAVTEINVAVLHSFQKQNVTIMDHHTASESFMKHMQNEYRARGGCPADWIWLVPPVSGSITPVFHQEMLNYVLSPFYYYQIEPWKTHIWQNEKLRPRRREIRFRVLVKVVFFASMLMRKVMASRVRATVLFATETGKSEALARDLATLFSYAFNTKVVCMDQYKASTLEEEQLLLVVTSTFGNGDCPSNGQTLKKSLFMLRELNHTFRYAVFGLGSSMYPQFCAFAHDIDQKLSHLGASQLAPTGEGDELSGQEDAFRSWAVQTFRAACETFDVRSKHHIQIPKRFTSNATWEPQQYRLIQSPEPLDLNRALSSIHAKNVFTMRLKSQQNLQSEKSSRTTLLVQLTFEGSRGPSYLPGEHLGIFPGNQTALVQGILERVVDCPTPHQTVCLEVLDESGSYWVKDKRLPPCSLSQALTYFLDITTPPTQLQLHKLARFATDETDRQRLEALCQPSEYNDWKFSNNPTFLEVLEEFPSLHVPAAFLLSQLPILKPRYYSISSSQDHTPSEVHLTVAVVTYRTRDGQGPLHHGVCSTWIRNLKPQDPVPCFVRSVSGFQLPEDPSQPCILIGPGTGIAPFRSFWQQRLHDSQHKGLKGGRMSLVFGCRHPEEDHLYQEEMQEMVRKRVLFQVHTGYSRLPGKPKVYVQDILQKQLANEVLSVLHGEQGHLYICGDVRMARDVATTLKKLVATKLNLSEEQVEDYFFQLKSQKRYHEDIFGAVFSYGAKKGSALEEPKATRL
Briefly: Inhibition of recombinant mouse macrophage iNOS expressed in Escherichia coli using L-arginine as substrate assessed as reduction in NO production measured for 6 mins by hemoglobin capture assay.

The target of another data set is T2, Cytochrome P450 1A2 (Homo sapiens, UniProt P05177).
T2 sequence (P05177 whole entry): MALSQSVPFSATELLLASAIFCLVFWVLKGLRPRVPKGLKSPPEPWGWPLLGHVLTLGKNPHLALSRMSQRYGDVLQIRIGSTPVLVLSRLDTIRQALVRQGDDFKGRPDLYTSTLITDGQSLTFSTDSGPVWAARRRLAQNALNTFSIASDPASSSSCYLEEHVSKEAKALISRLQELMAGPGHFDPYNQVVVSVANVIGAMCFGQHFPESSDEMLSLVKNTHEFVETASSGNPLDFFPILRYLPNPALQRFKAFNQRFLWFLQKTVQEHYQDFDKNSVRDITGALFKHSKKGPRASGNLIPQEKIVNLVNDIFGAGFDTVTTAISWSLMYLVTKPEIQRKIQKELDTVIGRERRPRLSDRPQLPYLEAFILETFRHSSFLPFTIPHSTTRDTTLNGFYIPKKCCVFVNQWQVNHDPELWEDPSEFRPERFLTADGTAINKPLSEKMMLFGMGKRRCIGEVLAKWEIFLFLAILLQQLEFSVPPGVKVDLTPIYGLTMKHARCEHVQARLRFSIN
Put plainly: Inhibition of CYP1A2 in human liver microsomes using phenacetin as substrate at 10 uM preincubated for 5 mins followed by NADPH addition measured after 10 mins by LC-MS/MS analysis relative to control. In kind it is ADME. In general terms: Liver microsomes are vesicles of endoplasmic reticulum, rich in cytochrome P450 enzymes.

Data set [2] in a line: Drug metabolism in human liver microsomes at 1 uM preincubated for 5 mins followed by NADPH addition measured after […] mins by LC-MS/MS analysis. The class given is ADME. As to conditions: read-out: Drug metabolism.
Data set [3] can be described thus: Permeability from apical to basolateral side in human Caco2 cells at 10 uM after 2 hrs by LC-MS/MS analysis. The class given is ADME, cell-based. The following applies: caco-2, 2 h. A general note: Caco-2 monolayers are a common model of the intestinal barrier.
Data set [4] can be described thus: Drug metabolism in human liver microsomes at 1 uM incubated for 60 mins by LC-MS/MS analysis. The class given is ADME. As to conditions: read-out: Drug metabolism.
The target in another data set is Cytochrome P450 2C9 (Homo sapiens, UniProt P11712). Put plainly: Inhibition of CYP2C9 in human liver microsomes using diclofenac as substrate at 10 uM preincubated for 5 mins followed by NADPH addition measured after 10 mins by LC-MS/MS analysis relative to control. The class given is ADME.
Chain of Cytochrome P450 2C9 (P11712 whole entry): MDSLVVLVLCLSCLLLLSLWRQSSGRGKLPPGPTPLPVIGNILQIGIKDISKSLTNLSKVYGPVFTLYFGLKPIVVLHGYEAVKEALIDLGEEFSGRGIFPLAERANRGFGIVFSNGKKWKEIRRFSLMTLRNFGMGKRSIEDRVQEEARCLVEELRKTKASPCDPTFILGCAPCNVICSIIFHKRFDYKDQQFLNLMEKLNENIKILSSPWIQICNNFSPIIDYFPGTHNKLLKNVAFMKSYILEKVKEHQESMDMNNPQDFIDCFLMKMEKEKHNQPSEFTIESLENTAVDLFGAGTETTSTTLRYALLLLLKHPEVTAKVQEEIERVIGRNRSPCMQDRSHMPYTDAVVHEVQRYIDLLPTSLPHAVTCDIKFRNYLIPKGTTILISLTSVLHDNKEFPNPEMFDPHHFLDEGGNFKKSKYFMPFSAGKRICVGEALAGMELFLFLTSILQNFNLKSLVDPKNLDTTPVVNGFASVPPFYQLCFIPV
The next data set has as its target Cytochrome P450 2D6 (Homo sapiens, UniProt P10635). Put plainly: Inhibition of CYP2D6 in human liver microsomes using bufuralol as substrate at 10 uM preincubated for 5 mins followed by NADPH addition measured after 10 mins by LC-MS/MS analysis relative to control. In kind it is ADME.

By Ki is commonly meant a dissociation constant, usually derived from enzyme kinetics or from competition with a known ligand.

Chain of Cytochrome P450 2D6 (P10635 whole entry): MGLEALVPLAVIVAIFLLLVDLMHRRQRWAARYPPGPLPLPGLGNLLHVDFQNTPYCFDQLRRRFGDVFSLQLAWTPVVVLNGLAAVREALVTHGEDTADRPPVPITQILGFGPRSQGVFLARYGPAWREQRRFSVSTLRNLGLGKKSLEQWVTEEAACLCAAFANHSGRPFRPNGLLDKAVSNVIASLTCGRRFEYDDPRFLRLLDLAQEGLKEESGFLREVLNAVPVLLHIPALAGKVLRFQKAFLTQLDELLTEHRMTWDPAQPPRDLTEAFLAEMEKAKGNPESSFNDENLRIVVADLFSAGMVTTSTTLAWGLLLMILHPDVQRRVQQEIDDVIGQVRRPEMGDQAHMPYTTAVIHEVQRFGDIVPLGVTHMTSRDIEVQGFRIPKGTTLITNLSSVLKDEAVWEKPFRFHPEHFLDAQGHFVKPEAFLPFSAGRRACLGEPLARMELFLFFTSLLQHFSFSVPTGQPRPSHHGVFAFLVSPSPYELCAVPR

With `Cc1cc(N)nc(CCc2cccnc2)c1`, the Ki at Nitric oxide synthase 1 turned out to be 706 nM; in data set [1], 2780 nM.

On to `CNCCCc1cncc(CCc2cc(C)cc(N)n2)c1`, for which the figures for the “inhibition (INH)” value against Cytochrome P450 1A2, against Cytochrome P450 2C9 and against Cytochrome P450 2D6 were 9%, 0% and 6%, respectively. Further, the metabolised at […], 1 µM in data set [2] was determined as 23%. Further, the permeability result in data set [3] is “impermeable”. In data set [4], the metabolised at 1 h, 1 µM was found to be 23%.

On to `Cc1cc(N)nc(CCc2cncc(N3CCCCC3)c2)c1`, for which the values for the Ki (at Nitric oxide synthase 1; in data set [1]) were 1870 nM and 5640 nM, respectively.
